Data taken from patent US8129398B2 (priority 2008, dated 2012).
pEC50, pIC50, pKi: −log10 of the molar value. Read-outs that look alike come from different tables or passages of the source.

What was measured:
HIV-integrase = molecular target: T1, HIV-integrase (Human immunodeficiency virus type 1 group M subtype B, UniProt P12497); test: HIV-Integrase Inhibition Activity (SPA bead integration assay with P33 labeled target DNA); format: biochemical; details: for pIC50: recombinant integrase, class symbols, read-out: in vitro activity; for pKi: representative compounds
T1 construct: Recombinant integrase (0.26 ng) was incubated with the beads
Outline: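 Strand integration read as bead-proximity CPM after P33 target DNA (0.1 fmol) and inhibitor were added to washed integrase–substrate DNA complexes on SPA beads. Enzyme bound 90 min at 37° C; EDTA (10 mM final) terminated reaction; IC50 graded A/B/C.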

[1] = system: recombinant NL-Rluc virus; test: Inhibition of HIV replication (recombinant NL-Rluc virus, Renilla luciferase reporter); format: cell-based

Structure (SMILES)	pIC50 (HIV-integrase)	pKi (HIV-integrase)	pEC50 ([1]; Human immunodeficiency virus 1)	pEC50 ([1]; read-out: Antiviral activity, NL-Rluc virus, serum condition not specified (10% FBS, 15 mg/ml human serum albumin/10% FBS or 40% human serum/5% FBS), class symbols)
O=C(NCc1ccc(F)cc1)c1nc2n(c(=O)c1O)CC1CC2CN(C(=O)OCc2ccccc2)C1 (centres unmarked) [Example 6, 7,11-Methano-4H-pyrimido[1,2-a][1,5]diazocine-9(6H)-carboxylic acid, 2-[[[(4-fluorophenyl)methyl]amino]carbonyl]-7,8,10,11-tetrahydro-3-hydroxy-4-oxo-, phenylmethyl ester]	7.00 to 8.00	7.92	6.85	
COc1ccc(CNC(=O)c2nc3n(c(=O)c2O)CC2CCC3(NC(=O)C(=O)N(C)C)CC2)c(OC)c1 [Example 382]	7.00 to 8.00	7.96	7.80	
Cc1cc(CNC(=O)c2nc3n(c(=O)c2O)CC2CCC3(NC(=O)c3cccnn3)CC2)ccc1F [Example 314, 7,10-Ethanopyrimido[1,2-a]azepine-2-carboxamide, N-[(4-fluoro-3-methylphenyl)methyl]-4,6,7,8,9,10-hexahydro-3-hydroxy-4-oxo-10-[(3-pyridazinylcarbonyl)amino]-]	> 8.00	> 9.00	> 9.00	
O=C(NCc1ccc(F)cc1)c1nc2n(c(=O)c1O)CC1CCC2(NS(=O)(=O)c2ccccc2OC(F)(F)F)CC1 [Example 396]	< 7.00	6.53	6.34	
CN(C)C(=O)C(=O)NC12CCC(CCn3c1nc(C(=O)NCc1ccc(F)cc1)c(O)c3=O)C2 (single isomer, unassigned) [Example 414, Ethanediamide, N′-[2-[[[(4-fluorophenyl)methyl]amino]carbonyl]-7,8,9,10-tetrahydro-3-hydroxy-4-oxo-8,11-methano-4H-pyrimido[1,2-a]azocin-11(6H)-yl]-N,N-dimethyl-]	> 8.00			> 8.00
O=C(NC12CCC(CC1)Cn1c2nc(C(=O)NCc2ccc(F)cc2)c(O)c1=O)C(=O)c1c[nH]c2c(-n3cncn3)ncc(F)c12 [Example 48, N-(4-Fluorobenzyl)-10-(((4-fluoro-7-(1H-1,2,4-triazol-1-yl)-1H-pyrrolo[2,3-c]pyridin-3-yl)(oxo)acetyl)amino)-3-hydroxy-4-oxo-4,6,7,8,9,10-hexahydro-7,10-ethanopyrimido[1,2-a]azepine-2-carboxamide]	> 8.00	9.00	8.40	
